According to ChEMBL document CHEMBL1137304, “Fluorinated conformationally restricted gamma-aminobutyric acid aminotransferase inhibitors” (J Med Chem, 2006):

Tests used:
[1] = target: 4-aminobutyrate aminotransferase, mitochondrial (Sus scrofa, UniProt P80147); assay: Inhibition of pig brain GABA-AT in presence of beta-mercaptoethanol
[2] = target: 4-aminobutyrate aminotransferase, mitochondrial (Sus scrofa) (UniProt P80147); assay: Inhibition of pig brain GABA-AT in presence of beta-mercaptoethanol at 0.2 M; conditions: TDE = time-dependent effect
4-aminobutyrate aminotransferase, mitochondrial (Sus scrofa), sequence (P80147 whole entry): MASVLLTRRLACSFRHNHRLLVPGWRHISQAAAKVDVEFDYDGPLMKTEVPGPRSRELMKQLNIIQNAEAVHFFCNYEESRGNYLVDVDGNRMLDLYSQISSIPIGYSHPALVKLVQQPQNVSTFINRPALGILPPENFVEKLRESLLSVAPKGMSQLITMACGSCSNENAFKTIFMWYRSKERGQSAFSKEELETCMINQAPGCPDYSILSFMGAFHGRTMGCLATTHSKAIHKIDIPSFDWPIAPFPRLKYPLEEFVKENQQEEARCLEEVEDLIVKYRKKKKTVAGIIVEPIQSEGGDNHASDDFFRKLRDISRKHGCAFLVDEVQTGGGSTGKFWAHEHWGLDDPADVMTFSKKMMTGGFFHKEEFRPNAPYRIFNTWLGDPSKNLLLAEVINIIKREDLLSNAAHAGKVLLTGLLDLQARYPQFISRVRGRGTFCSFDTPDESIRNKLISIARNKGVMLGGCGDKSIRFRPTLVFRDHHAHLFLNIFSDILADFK

[3] = target: 4-aminobutyrate aminotransferase, mitochondrial (Sus scrofa) (UniProt P80147); assay: Residual activity at pig brain GABA-AT assessed by exhaustive dialysis at 0.2 M after 22 hrs relative to control

4-aminobutyrate aminotransferase, mitochondrial, sequence (P80147 whole entry): as above

| SMILES | Ki [1] | Activity [2] | Activity [3] |
| --- | --- | --- | --- |
| N[C@H]1C[C@@H](C(=O)O)C=C1C(F)(F)C(F)(F)F | 2.8 mM | – | – |
| N[C@H]1C[C@@H](C(=O)O)C/C1=C/C(F)(F)F | 7.74 mM | tde | – |
| N[C@H]1C[C@@H](C(=O)O)CC1=C(C(F)(F)F)C(F)(F)F | 4.2 mM | – | – |
| N[C@H]1C[C@@H](C(=O)O)C=C1C(F)(F)F | 4.11 mM | tde | 48% |
| N[C@H]1C[C@@H](C(=O)O)C=C1F | 1.3 mM | – | – |
| N[C@H]1C[C@@H](C(=O)O)CC1=CC(F)(F)F | 39.2 mM | tde | 13% |
